Data: patent US20170197979A1, “BENZOTHIADIAZOLAMINES” (BAYER PHARMA AKTIENGESELLSCHAFT, priority 2014, published 2017)

These compounds were tested against T1, human full-length MKNK1 (Homo sapiens, UniProt Q9BUB5, T385D) (assay: MKNK1 kinase high ATP assay (TR-FRET)). Conditions: not given.
T1 construct: GST (N); purchased Carna Biosciences 02-145; host or cells: insect cells (baculovirus expression system)
T1 sequence (Q9BUB5 1-424 isoform Q9BUB5-2 T344D): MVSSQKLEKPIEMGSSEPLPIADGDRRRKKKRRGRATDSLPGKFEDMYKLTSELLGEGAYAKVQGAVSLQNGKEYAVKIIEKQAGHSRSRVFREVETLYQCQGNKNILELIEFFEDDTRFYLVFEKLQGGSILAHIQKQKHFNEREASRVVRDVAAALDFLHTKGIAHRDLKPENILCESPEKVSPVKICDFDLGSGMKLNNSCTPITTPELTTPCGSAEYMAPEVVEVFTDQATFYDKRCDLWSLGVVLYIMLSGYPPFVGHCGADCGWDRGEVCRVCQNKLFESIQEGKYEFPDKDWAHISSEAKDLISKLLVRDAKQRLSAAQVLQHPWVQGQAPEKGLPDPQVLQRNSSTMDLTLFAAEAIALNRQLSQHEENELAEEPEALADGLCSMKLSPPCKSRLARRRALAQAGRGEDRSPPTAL
Type: biochemical
Experimental: MKNK1 Kinase High ATP Assay
MKNK1-inhibitory activity at high ATP of compounds of the present invention after their preincubation with MKNK1 was quantified employing the TR-FRET-based MKNK1 high ATP assay as described in the following paragraphs.
A recombinant fusion protein of Glutathione-S-Transferase (GST, N-terminally) and human full-length MKNK1 (amino acids 1-424 and T344D of accession number BAA 19885.1), expressed in insect cells using baculovirus expression system and purified via glutathione sepharose affinity chromatography, was purchased from Carna Biosciences (product no 02-145) and used as enzyme. As substrate for the kinase reaction the biotinylated peptide biotin-Ahx-IKKRKLTRRKSLKG (C-terminus in amide form) was used, which can be purchased e.g. from the company Biosyntan (Berlin-Buch, Germany).
For the assay 50 nL of a 100 fold concentrated solution of the test compound in DMSO was pipetted into a black low volume 384 well microtiter plate (Greiner Bio-One, Frickenhausen, Germany), 2 μL of a solution of MKNK1 in aqueous assay buffer [50 mM HEPES pH 7.5, 5 mM MgCl2, 1.0 mM dithiothreitol, 0.005% (v/v) Nonidet-P40 (Sigma)] was added and the mixture was incubated for 15 min at 22° C. to allow pre-binding of the test compounds to the enzyme before the start of the kinase reaction. Then the kinase reaction was started by the addition of 3 μL of a solution of adenosine-tri-phosphate (ATP, 3.3 mM=>final conc. in the 5 μL assay volume is 2 mM) and substrate (0.1 μM=>final conc. in the 5 μL assay volume is 0.06 μM) in assay buffer and the resulting mixture was incubated for a reaction time of 30 min at 22° C. The concentration of MKNK1 was adjusted depending of the activity of the enzyme lot and was chosen appropriate to have the assay in the linear range, typical concentrations were in the range of 0.003 μg/mL. The reaction was stopped by the addition of 5 μL of a solution of TR-FRET detection reagents (5 nM streptavidine-XL665 [Cisbio Bioassays, Codolet, France] and 1 nM anti-ribosomal protein S6 (pSer236)-antibody from Invitrogen [#44921G] and 1 nM LANCE EU-W1024 labeled ProteinG [Perkin-Elmer, product no. AD0071]) in an aqueous EDTA-solution (100 mM EDTA, 0.1% (w/v) bovine serum albumin in 50 mM HEPES pH 7.5).
The resulting mixture was incubated for 1 h at 22° C. to allow the formation of complex between the phosphorylated biotinylated peptide and the detection reagents. Subsequently the amount of phosphorylated substrate was evaluated by measurement of the resonance energy transfer from the Eu-chelate to the streptavidine-XL. Therefore, the fluorescence emissions at 620 nm and 665 nm after excitation at 350 nm were measured in a TR-FRET reader, e.g. a Rubystar (BMG Labtechnologies, Offenburg, Germany) or a Viewlux (Perkin-Elmer). The ratio of the emissions at 665 nm and at […] was taken as the measure for the amount of phosphorylated substrate. The data were normalised (enzyme reaction without inhibitor=0% inhibition, all other assay components but no enzyme=100% inhibition).
Compound O=C1CCN(C(=O)[C@H]2CCc3c(sc4ncnc(Nc5ccc6nnsc6c5)c34)C2)CC1 [Example 16, 1-{[(7S)-4-(1,2,3-Benzothiadiazol-6-ylamino)-5,6,7,8-tetrahydro[1]benzothieno[2,3-d]pyrimidin-7-yl]carbonyl}piperidin-4-one] has an IC50 of 15 nM.

Same assay, conditions: TR-FRET, high ATP (2 mM final), 15 min preincubation with enzyme, GST-MKNK1 (T344D); read-out: MKNK1 IC50
Compound CN(C)C(=O)[C@H]1CCc2c(sc3ncnc(Nc4ccc5nnsc5c4)c23)C1 [Example 1, (7S)-4-(1,2,3-Benzothiadiazol-6-ylamino)-N,N-dimethyl-5,6,7,8-tetrahydro[1]benzothieno[2,3-d]pyrimidine-7-carboxamide] has an IC50 of 16 nM.
COCCN(C)C(=O)[C@H]1CCc2c(sc3ncnc(Nc4ccc5nnsc5c4)c23)C1 [Example 2, (7S)-4-(1,2,3-Benzothiadiazol-6-ylamino)-N-(2-methoxyethyl)-N-methyl-5,6,7,8-tetrahydro[1]benzothieno[2,3-d]pyrimidine-7-carboxamide] gave an IC50 of 9.4 nM.
With C[C@@H]1CN(C(=O)[C@H]2CCc3c(sc4ncnc(Nc5ccc6nnsc6c5)c34)C2)C[C@H](C)O1 [Example 3, [(7S)-4-(1,2,3-Benzothiadiazol-6-ylamino)-5,6,7,8-tetrahydro[1]benzothieno[2,3-d]pyrimidin-7-yl][(2R,6S)-2,6-dimethylmorpholin-4-yl]methanone] the IC50 was 13 nM.
For C[C@@H]1COCCN1C(=O)[C@H]1CCc2c(sc3ncnc(Nc4ccc5nnsc5c4)c23)C1 [Example 4, [(7S)-4-(1,2,3-Benzothiadiazol-6-ylamino)-5,6,7,8-tetrahydro[1]benzothieno[2,3-d]pyrimidin-7-yl][(3R)-3-methylmorpholin-4-yl]methanone], the IC50 was 11 nM.
C[C@H]1COCCN1C(=O)[C@H]1CCc2c(sc3ncnc(Nc4ccc5nnsc5c4)c23)C1 [Example 5, [(7S)-4-(1,2,3-Benzothiadiazol-6-ylamino)-5,6,7,8-tetrahydro[1]benzothieno[2,3-d]pyrimidin-7-yl][(3S)-3-methylmorpholin-4-yl]methanone] showed an IC50 of 12 nM.
O=C([C@H]1CCc2c(sc3ncnc(Nc4ccc5nnsc5c4)c23)C1)N1CCOCC1 [Example 6, [(7S)-4-(1,2,3-Benzothiadiazol-6-ylamino)-5,6,7,8-tetrahydro[1]benzothieno[2,3-d]pyrimidin-7-yl](morpholin-4-yl)methanone] showed an IC50 of 18 nM.
C[C@@H]1COC[C@H](C)N1C(=O)[C@H]1CCc2c(sc3ncnc(Nc4ccc5nnsc5c4)c23)C1 [Example 7, [(7S)-4-(1,2,3-Benzothiadiazol-6-ylamino)-5,6,7,8-tetrahydro[1]benzothieno[2,3-d]pyrimidin-7-yl][(3R,5S)-3,5-dimethylmorpholin-4-yl]methanone] showed an IC50 of 5.8 nM.
In the case of C[C@@H]1CN(C(=O)[C@H]2CCc3c(sc4ncnc(Nc5ccc6nnsc6c5)c34)C2)C[C@@H](C)O1 [Example 8, [(7S)-4-(1,2,3-Benzothiadiazol-6-ylamino)-5,6,7,8-tetrahydro[1]benzothieno[2,3-d]pyrimidin-7-yl][(2R,6R)-2,6-dimethylmorpholin-4-yl]methanone], the IC50 is reported as 6.4 nM.
C[C@@H]1COC[C@@H](C)N1C(=O)[C@H]1CCc2c(sc3ncnc(Nc4ccc5nnsc5c4)c23)C1 [Example 9, [(7S)-4-(1,2,3-Benzothiadiazol-6-ylamino)-5,6,7,8-tetrahydro[1]benzothieno[2,3-d]pyrimidin-7-yl][(3R,5R)-3,5-dimethylmorpholin-4-yl]methanone] gave an IC50 of 5.4 nM.
For C[C@H]1CN(C(=O)[C@H]2CCc3c(sc4ncnc(Nc5ccc6nnsc6c5)c34)C2)C[C@H](C)O1 [Example 10, [(7S)-4-(1,2,3-Benzothiadiazol-6-ylamino)-5,6,7,8-tetrahydro[1]benzothieno[2,3-d]pyrimidin-7-yl][(2S,6S)-2,6-dimethylmorpholin-4-yl]methanone], the IC50 was 5 nM.
CN(C(=O)[C@H]1CCc2c(sc3ncnc(Nc4ccc5nnsc5c4)c23)C1)S(C)(=O)=O [Example 11, (7S)-4-(1,2,3-Benzothiadiazol-6-ylamino)-N-methyl-N-(methylsulfonyl)-5,6,7,8-tetrahydro[1]benzothieno[2,3-d]pyrimidine-7-carboxamide] showed an IC50 of 12 nM.
CN(C)CCN1CCN(C(=O)[C@H]2CCc3c(sc4ncnc(Nc5ccc6nnsc6c5)c34)C2)CC1 [Example 12, [(7S)-4-(1,2,3-Benzothiadiazol-6-ylamino)-5,6,7,8-tetrahydro[1]benzothieno[2,3-d]pyrimidin-7-yl]{4-[2-(dimethylamino)ethyl]piperazin-1-yl}methanone] showed an IC50 of 6.4 nM.
In the case of CN(C)[C@H]1CCN(C(=O)[C@H]2CCc3c(sc4ncnc(Nc5ccc6nnsc6c5)c34)C2)C1 [Example 13, [(7S)-4-(1,2,3-Benzothiadiazol-6-ylamino)-5,6,7,8-tetrahydro[1]benzothieno[2,3-d]pyrimidin-7-yl][(3S)-3-(dimethylamino)pyrrolidin-1-yl]methanone], the IC50 is reported as 6.1 nM.
CN(C)C1CN(C(=O)[C@H]2CCc3c(sc4ncnc(Nc5ccc6nnsc6c5)c34)C2)C1 [Example 14, [(7S)-4-(1,2,3-Benzothiadiazol-6-ylamino)-5,6,7,8-tetrahydro[1]benzothieno[2,3-d]pyrimidin-7-yl][3-(dimethylamino)azetidin-1-yl]methanone] was tested, and the IC50 was 26 nM.
In the case of CN(C)C1CCN(C(=O)[C@H]2CCc3c(sc4ncnc(Nc5ccc6nnsc6c5)c34)C2)CC1 [Example 15, [(7S)-4-(1,2,3-Benzothiadiazol-6-ylamino)-5,6,7,8-tetrahydro[1]benzothieno[2,3-d]pyrimidin-7-yl][4-(dimethylamino)piperidin-1-yl]methanone], the IC50 is reported as 10 nM.
O=C([C@H]1CCc2c(sc3ncnc(Nc4ccc5nnsc5c4)c23)C1)N1CCC(F)(F)C1 [Example 17, [(7S)-4-(1,2,3-Benzothiadiazol-6-ylamino)-5,6,7,8-tetrahydro[1]benzothieno[2,3-d]pyrimidin-7-yl](3,3-difluoropyrrolidin-1-yl)methanone] gave an IC50 of 11 nM.
Compound O=C([C@H]1CCc2c(sc3ncnc(Nc4ccc5nnsc5c4)c23)C1)N1C[C@@H]2C[C@H]1CO2 [Example 18, [(7S)-4-(1,2,3-Benzothiadiazol-6-ylamino)-5,6,7,8-tetrahydro[1]benzothieno[2,3-d]pyrimidin-7-yl][(1S,4S)-2-oxa-5-azabicyclo[2.2.1]hept-5-yl]methanone] has an IC50 of 14 nM.
Compound CN1C[C@@H]2C[C@H]1CN2C(=O)[C@H]1CCc2c(sc3ncnc(Nc4ccc5nnsc5c4)c23)C1 [Example 19, [(7S)-4-(1,2,3-Benzothiadiazol-6-ylamino)-5,6,7,8-tetrahydro[1]benzothieno[2,3-d]pyrimidin-7-yl][(1S,4S)-5-methyl-2,5-diazabicyclo[2.2.1]hept-2-yl]methanone] has an IC50 of 20 nM.
For O=C([C@H]1CCc2c(sc3ncnc(Nc4ccc5nnsc5c4)c23)C1)N1CC2(COC2)C1 [Example 20, [(7S)-4-(1,2,3-Benzothiadiazol-6-ylamino)-5,6,7,8-tetrahydro[1]benzothieno[2,3-d]pyrimidin-7-yl](2-oxa-6-azaspiro[3.3]hept-6-yl)methanone], the IC50 was 16 nM.
For CN(C)CCN(C)C1CCN(C(=O)[C@H]2CCc3c(sc4ncnc(Nc5ccc6nnsc6c5)c34)C2)CC1 [Example 21, [(7S)-4-(1,2,3-Benzothiadiazol-6-ylamino)-5,6,7,8-tetrahydro[1]benzothieno[2,3-d]pyrimidin-7-yl](4-{[2-(dimethylamino)ethyl](methyl)amino}piperidin-1-yl)methanone], the IC50 was 1.3 nM.
CN(CCNC(=O)OC(C)(C)C)C(=O)[C@H]1CCc2c(sc3ncnc(Nc4ccc5nnsc5c4)c23)C1 [Example 22, tert-Butyl {2-[{[(7S)-4-(1,2,3-benzothiadiazol-6-ylamino)-5,6,7,8-tetrahydro[1]benzothieno[2,3-d]pyrimidin-7-yl]carbonyl}(methyl)amino]ethyl}carbamate] showed an IC50 of 14 nM.
